Active and inactive are the calls of the source. How the calls were made is not given here.
Biological target: Collagenase 3 (Homo sapiens) (UniProt P45452)
Assay: human MMP13 inhibitors, potency, dose response, biochemical (AID 735)
Settings: recombinant MMP13 enzymatic activity assay

CCOC(=O)/C(C#N)=C1/C=Nc2ccccc2N1
IC50: inactive

COc1cc(-n2nc(C)c3c2OC(N)=C(C#N)C3c2ccccc2)c(Cl)c(Br)c1O (configuration not stated)
IC50: > 39.8 µM (inactive)

Source: PubChem BioAssay AID735 (The Scripps Research Institute Molecular Screening Center, 2007)
